Test system: CU-ACC1
Test: area under concentration-response curve (viability) (AUC (a.u.)); higher = less active
Conditions: 48 h
How it was run: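 Library compounds were tested at 11 concentrations against three adrenocortical carcinoma cell lines in 1,536-well plates. CellTiter-Glo luminescence was read after 48 h and normalised per plate to vehicle and empty-well controls. Only inhibitory or non-responding curve classes from fitted concentration-response curves contributed AC50 and area under the curve.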

Q: COc1ccc([S+](=O)([O-])Nc2cc(-c3c(O)ccc4ccccc34)c(O)c3ccccc23)cc1 was tested. Which “area under concentration-response curve” value did it give?
A: Its value is 482.

Q: For COc1cccc(OCCCN)c1-c1cc(Nc2cnc(C#N)cn2)n[nH]1, which “area under concentration-response curve” value is on record?
A: Its value is 347.

Q: How did the “area under concentration-response curve” value turn out when COc1cc2c(Oc3ccc4[nH]c(C)cc4c3F)ccnc2cc1OCC1(N)CC1 was run?
A: Its value is 534.

Q: Which “area under concentration-response curve” value does the source give for Cc1ccc(NC(=O)c2ccc(CN3CC[C@H](N(C)C)C3)c(C(F)(F)F)c2)cc1Nc1nccc(-c2cncnc2)n1 here?
A: Its value is 549.

Q: O=C(O)C[C@H]1CCc2c1[nH]c1ccc(OCc3ccc(C4CCCC4)c(C(F)(F)F)c3)cc21 was tested. Which “area under concentration-response curve” value did it give?
A: Its value is 506.

Q: Which “area under concentration-response curve” value does the source give for CC(=O)c1c(O)c(C)c(O)c(Cc2c(O)c3c(c(C(=O)/C=C/c4ccccc4)c2O)OC(C)(C)C=C3)c1O here?
A: Its value is 323.

Q: O=C(/C=C/N1C[C@H]2C[C@@H]1CN2c1ccccn1)c1ccccc1O was tested. Which “area under concentration-response curve” value did it give?
A: Its value is 306.

Q: How did the “area under concentration-response curve” value turn out when C[C@]12CC[C@H]3[C@@H](CC(=C)\C4=C\C(=O)\C=C/[C@]34C)[C@@H]1CCC2=O was run?
A: The value was 320.

Q: How did the “area under concentration-response curve” value turn out when CO[C@@]12[C@H](COC(N)=O)C/3=C(N1C[C@@H]4N[C@H]24)/C(=O)/C(=C(N)\C3=O)C was run?
A: Its value is 378.

Q: How did the “area under concentration-response curve” value turn out when OCCN(CCO)c1nc(N2CCCCC2)c2nc(N(CCO)CCO)nc(N3CCCCC3)c2n1 was run?
A: Its value is 478.

Q: With O=C(O)CCCc1ccc(N(CCCl)CCCl)cc1 as the compound, how does the “area under concentration-response curve” value read?
A: The value was 300.

Q: How did the “area under concentration-response curve” value turn out when FC1=CC=C(CN2\C=C/C=C(/C(=O)N[C@@H](COC3=CC4=C(NC(=O)N4)C=C3)C5=CC=CC=C5)C2=O)C=C1F was run?
A: The value was 546.

Q: O=C(O)Cc1cccc(OCCCN(Cc2cccc(C(F)(F)F)c2Cl)CC(c2ccccc2)c2ccccc2)c1 was tested. Which “area under concentration-response curve” value did it give?
A: Its value is 535.

Q: CCOC(=O)\C1=C(/C)N\C2=C(C1C3=CC=C(C=C3)C4=CC=CC=C4)\C(=O)CC(C)(C)C2 (stereo not given) was tested. Which “area under concentration-response curve” value did it give?
A: The value was 552.

Q: How did the “area under concentration-response curve” value turn out when Cc1ncc(Cl)cc1NCc1ccc(C(=O)NC(CC2CCCC2)C(=O)NC2CC2)s1 (stereo not given) was run?
A: The value was 467.

Q: Which “area under concentration-response curve” value does the source give for CCCCCNC(=O)N1CCC(CN(Cc2ccc(Cl)cc2)Cc2ccc([N+](=O)[O-])s2)C1 (stereo not given) here?
A: Its value is 509.

Q: With CCCCCCCN(CC)CCCC(O)c1ccc(N[S+](C)(=O)[O-])cc1 (stereo not given) as the compound, how does the “area under concentration-response curve” value read?
A: Its value is 398.

Q: With COc1ccc(Cc2ccc(NC(N)=O)cc2)cc1-c1cccc(Cl)c1 as the compound, how does the “area under concentration-response curve” value read?
A: The value was 480.

Q: How did the “area under concentration-response curve” value turn out when NC(=O)c1cccc2cn(-c3ccc([C@@H]4CCCNC4)cc3)nc12 was run?
A: The value was 444.

Q: How did the “area under concentration-response curve” value turn out when OC[C@H]1O[C@H]([C@@H](F)[C@@H]1O)N2\C=C/C(=O)NC2=O was run?
A: Its value is 370.

Q: With O=[S+]([O-])(O)c1ccc2cc(/N=N/c3cc([S+](=O)([O-])O)c4cccnc4c3O)ccc2c1 as the compound, how does the “area under concentration-response curve” value read?
A: The value was 500.

Q: For Cc1cc(C)cc(NC(=O)Cc2ccc(OC(C)(C)C(=O)O)cc2)c1, which “area under concentration-response curve” value is on record?
A: The value was 504.

Q: For NC\1=N\C(=O)N(\C=C1)[C@H]\2[C@H](O)[C@H](O)C(=C2F)\CO, which “area under concentration-response curve” value is on record?
A: The value was 336.

Q: Which “area under concentration-response curve” value does the source give for COc1ccc2cc(-c3[nH]c(-c4ccc([S+](C)[O-])cc4)nc3-c3ccncc3)ccc2c1 (stereo not given) here?
A: The value was 472.

Q: For CCCCN(CCCC)C(=O)CN1C[C@H](c2ccc3c(c2)OCO3)[C@@H](C(=O)O)[C@@H]1c1ccc(OC)cc1, which “area under concentration-response curve” value is on record?
A: Its value is 460.

Q: For Clc1ccc(COC(Cn2ccnc2)c2ccc(Cl)cc2Cl)cc1 (stereo not given), which “area under concentration-response curve” value is on record?
A: Its value is 433.

Q: C[C@@H]1CCN(C(=O)CC#N)C[C@@H]1N(C)c1ncnc2[nH]ccc12 was tested. Which “area under concentration-response curve” value did it give?
A: The value was 305.

Q: For O=C(NCCCCN1CCOCC1)c1cc2ccccc2o1, which “area under concentration-response curve” value is on record?
A: Its value is 461.

Q: With CCc1cc2c(cc1N1CCC(N3CCOCC3)CC1)C(C)(C)c1[nH]c3cc(C#N)ccc3c1C2=O as the compound, how does the “area under concentration-response curve” value read?
A: The value was 416.

Q: How did the “area under concentration-response curve” value turn out when CCc1c(O)cc(O)c(C(=O)c2ccc(OCCN3CCOCC3)c(OC)c2)c1CC(=O)N(CCOC)CCOC was run?
A: Its value is 216.

From the supplement of paper PMC10949913
